“And” between values parts separate entries of the source, which are not always exact repeats. Equal values may be shown once. Read-outs that look alike come from different tables or passages of the source.
Tests used:
[1] = test system: Phaedon cochleariae larvae; experiment: Efficacy against Phaedon cochleariae larvae, cabbage leaf dip test; conditions: for mortality at 1 ppm: read-out: Mortality in % after 4d, dose 1 ppm
[2] = test system: Myzus persicae; experiment: Efficacy against Myzus persicae, cabbage leaf dip test; format: in vivo; conditions: foliar
Excerpt: (§1) Solvent: 7 parts by weight of dimethylformamide

[3] = test system: Aphis gossypii; experiment: Efficacy against Aphis gossypii, cotton leaf dip test; format: in vivo; conditions: foliar, 24 h, after 1 d
Excerpt: as §1

[4] = test system: Gibberella zeae; format: cell-based; conditions: dose 3 ppm; 4 days of incubation, optical density
[5] = test system: Phytophthora cryptogea; experiment: Efficacy against Phytophthora cryptogea (Test in vitro - Microtest); conditions: dose 0.03 ppm; 4 days of incubation, optical density
Description: The microtest was performed in liquid medium with potato-dextrose broth (PDB) using microtitre plates.
A mycelium suspension of Phytophthora cryptogea was used for inoculation. After 4 days of incubation by darkness under shaking (10 Hrz), the optical density in each cavity was evaluated with the aid of a microtitre plate reader.

[6] = test system: Pyricularia oryzae; format: cell-based; conditions: dose 0.015 ppm; 3 days of incubation
[7] = 24 h, after 1 d, read-out: Mortality in % after 1d
[8] = 144 h, after 6 d, read-out: Mortality in % after 6d
[9] = Phaedon cochleariae, in Brassica oleracea, foliar, 96 h, read-out: Mortality in % after 4d, dose 4 ppm, after 4 d
[10] = Phaedon cochleariae, in Brassica oleracea, foliar, 144 h, read-out: Mortality in % after 6d, dose 4 ppm, after 6 d
[11] = Phaedon cochleariae, in Brassica oleracea, foliar, 96 h, after 4 d
[12] = Phaedon cochleariae, in Brassica oleracea, foliar, 144 h, read-out: Mortality in % after 6d, dose 200 ppm, after 6 d

5-fluoro-1,3-dimethyl-N-[2-(1,3-dimethyl)-but-2-ol-yl]-1H-pyrazole-4-carboxamide [Compound A]
Mortality in % after 4d ([1]; dose 200 ppm, after 4 d): 0%

CN/C(=N\[N+](=O)[O-])NCc1cnc(Cl)s1 [Clothianidin, clothianidin]
mortality at 0.16 ppm [2, 7]: 10%
mortality at 0.8 ppm [2, 7]: 70%
mortality at 0.16 ppm [2, 8]: 30%
mortality at 0.8 ppm [2, 8]: 55%
mortality at 4 ppm [1, 9]: 60%
mortality at 0.8 ppm ([1]; Phaedon cochleariae, in Brassica oleracea, foliar, 144 h, read-out: Mortality in % after 6d, dose 0.8 ppm, after 6 d): 0%
mortality at 4 ppm [1, 10]: 20%
Mortality in % after 6d ([1]; dose 4 ppm, after 6 d): 40%

O=C(NCCc1ncc(C(F)(F)F)cc1Cl)c1ccccc1C(F)(F)F [Compound 1, N-{2-[3-chloro-5-(trifluoromethyl)-2-pyridinyl]ethyl}-2-trifluoromethylbenzamide]
mortality at 20 ppm ([2]; 24 h, dose 20 ppm, after 1 d): 0%
mortality at 200 ppm [2, 7]: 0%
mortality at 200 ppm [2, 8]: 0%
mortality at 200 ppm ([3]; dose 200 ppm): 10%
mortality at 1 ppm [1, 11]: 0%
mortality at 0.2 ppm ([1]; Phaedon cochleariae, in Brassica oleracea, foliar, 144 h, read-out: Mortality in % after 6d, dose 0.2 ppm, after 6 d): 0%
mortality at 200 ppm [1, 12]: 0%
Mortality in % after 4d ([1]; dose 200 ppm, after 4 d): 5% and 15%
Efficacy in % [4]: 41%
Efficacy in % [5]: 13%

Nc1nc(N)nc(NC2CC2)n1 [Cyromazine, cyromazine]
mortality at 20 ppm ([1]; Phaedon cochleariae, in Brassica oleracea, foliar, 144 h, read-out: Mortality in % after 6d, dose 20 ppm, after 6 d): 5%

CCOP(=O)(NC(C)C)Oc1ccc(SC)c(C)c1 (stereo not shown) [Fenamifos, fenamifos]
Mortality in % after 6d ([1]; dose 20 ppm, after 6 d): 75%

N#Cc1nn(-c2c(Cl)cc(C(F)(F)F)cc2Cl)c(N)c1[S+]([O-])C(F)(F)F (stereo not shown) [Fipronil, fipronil]
mortality at 100 ppm ([3]; dose 100 ppm): 40%

N#Cc1c[nH]cc1-c1cccc2c1OC(F)(F)O2 [Fludioxonil, fludioxonil]
mortality at 200 ppm [2, 7]: 0%
mortality at 200 ppm [1, 12]: 5%

O=[N+]([O-])NC1=NCCN1Cc1ccc(Cl)nc1 [Imidacloprid, imidacloprid]
mortality at 0.16 ppm [2, 7]: 30%
mortality at 4 ppm [1, 9]: 35%
Efficacy in % [4]: 22%

CC(C)C1CCC(Cc2ccc(Cl)cc2)C1(O)Cn1cncn1 (stereo not shown) [Ipconazole, ipconazole]
mortality at 200 ppm [2, 7]: 0%

OC(Cc1ccccc1Cl)(Cn1nc[nH]c1=S)C1(Cl)CC1 (stereo not shown) [Prothioconazole, prothioconazole]
Efficacy in % [6]: 12%
mortality at 200 ppm [2, 8]: 0%
mortality at 1 ppm [1, 11]: 0%
mortality at 200 ppm ([1]; Phaedon cochleariae, in Brassica oleracea, foliar, 96 h, read-out: Mortality in % after 4d, dose 200 ppm, after 4 d): 0%

CC1=NNC(=O)N(/N=C/c2cccnc2)C1 [Pymetrozine, pymetrozine]
mortality at 0.8 ppm [2, 7]: 30%

CC(C)(C)C(O)(CCc1ccc(Cl)cc1)Cn1cncn1 (stereo not shown) [Tebuconazole, tebuconazole]
mortality at 200 ppm [2, 8]: 0%

N#C/N=C1\SCCN1Cc1ccc(Cl)nc1 [Thiacloprid, thiacloprid]
mortality at 4 ppm [1, 10]: 25%

CC(C)(C)C(O)C(Oc1ccc(Cl)cc1)n1cncn1 (stereo not shown) [Triadimenol, triadimenol]
mortality at 200 ppm [2, 7]: 10%
mortality at 0.4 ppm ([1]; Phaedon cochleariae, in Brassica oleracea, foliar, 144 h, read-out: Mortality in % after 6d, dose 0.4 ppm, after 6 d): 0%

CON=C(C(=O)OC)c1ccccc1CON=C(C)c1cccc(C(F)(F)F)c1 [Trifloxystrobin, trifloxystrobin]
mortality at 200 ppm [2, 8]: 20%

spinosad
Mortality in % after 4d ([1]; dose 0.8 ppm, after 4 d): 50%
Efficacy in % [5]: 5%

Reference: patent US9408385B2, “Pesticidal composition comprising a pyridylethylbenzamide derivative and an insecticide compound” (priority 2006, dated 2016)
